Measured values as given in US9453062B2, “Glucose dependent insulinotropic polypeptide analogs, pharmaceutical compositions and use thereof” (Beijing Hanmi Pharmaceutical Co., Ltd., priority 2011, dated 2016).
Where a SMILES comes first, the peptide text is derived from it. Bridges are numbered along the chain shown (N, C = ends). Where no end group is shown, it is not given here. [ ]: non-standard residue; d: D form. The star is where a group is joined. Palmitoyl = CCCCCCCCCCCCCCCC(=O)*; Aib = CC(C)(N)C(=O)O

Assays:
hGLP-1R = molecular target: T1, hGLP-1R (Homo sapiens, UniProt P43220); assay: hGLP-1R-mediated cAMP induction assay in CHO cell line; type: cell-based; settings: Table 3; for EC50: CHO hGLP1R cells; for GLP-1 Receptor Relative Potency: against native GLP-1;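 as to all read-outs here: CHO cells expressing human GLP-1R, treated 30 min at 37 °C, intracellular cAMP measured by competitive fluorescent immunoassay and converted via a cAMP standard curve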
T1 construct: expressed in transfected cells; host or cells: CHO
T1 sequence (P43220 24-463): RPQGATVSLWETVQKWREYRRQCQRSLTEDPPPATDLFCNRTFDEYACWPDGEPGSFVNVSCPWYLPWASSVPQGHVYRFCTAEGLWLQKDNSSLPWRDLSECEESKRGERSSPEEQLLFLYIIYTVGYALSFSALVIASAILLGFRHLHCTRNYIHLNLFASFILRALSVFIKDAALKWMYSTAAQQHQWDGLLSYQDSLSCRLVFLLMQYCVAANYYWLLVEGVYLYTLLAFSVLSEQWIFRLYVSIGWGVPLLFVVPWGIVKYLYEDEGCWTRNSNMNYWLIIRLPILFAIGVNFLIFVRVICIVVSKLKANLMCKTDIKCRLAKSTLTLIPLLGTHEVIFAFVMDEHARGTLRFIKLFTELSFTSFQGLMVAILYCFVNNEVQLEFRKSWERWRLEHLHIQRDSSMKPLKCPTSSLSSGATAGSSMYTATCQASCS

hGIPR = molecular target: T2, hGIPR (Homo sapiens, UniProt P48546); assay: hGIPR-mediated cAMP induction assay in CHO cell line; type: cell-based; settings: Table 3; for GIP Receptor Relative Potency: against native GIP
T2 construct: expressed in transfected cells; host or cells: CHO
T2 sequence (P48546 22-466): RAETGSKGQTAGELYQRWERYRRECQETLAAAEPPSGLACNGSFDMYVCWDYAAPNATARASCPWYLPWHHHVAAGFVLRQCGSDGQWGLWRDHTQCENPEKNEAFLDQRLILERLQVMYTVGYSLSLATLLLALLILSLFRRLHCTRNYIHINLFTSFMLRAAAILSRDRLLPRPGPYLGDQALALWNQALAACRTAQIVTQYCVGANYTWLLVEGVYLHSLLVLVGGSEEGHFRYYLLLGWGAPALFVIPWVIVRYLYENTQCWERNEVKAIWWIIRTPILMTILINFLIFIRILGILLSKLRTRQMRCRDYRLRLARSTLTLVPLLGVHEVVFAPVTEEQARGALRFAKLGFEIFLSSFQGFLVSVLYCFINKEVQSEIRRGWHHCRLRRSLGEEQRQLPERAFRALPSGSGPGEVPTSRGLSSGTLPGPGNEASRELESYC

Row | Compound | EC50 (hGLP-1R) | GLP-1 Receptor Relative Potency (hGLP-1R) | GIP Receptor Relative Potency (hGIPR) | EC50 (hGIPR; CHO hGIPR cells)
1 | CC[C@H](C)[C@H](NC(=O)[C@H](Cc1ccccc1)NC(=O)[C@H](CCC(=O)O)NC(=O)[C@H](CCCNC(=N)N)NC(=O)[C@@H](NC(=O)[C@H](C)NC(=O)[C@H](CCC(=O)O)NC(=O)[C@H](CCCCN)NC(=O)[C@H](CCC(=O)O)NC(=O)[C@H](CCSC)NC(=O)[C@H](Cc1ccc(O)cc1)NC(=O)[C@@H](NC(=O)[C@H](CO)NC(=O)[C@H](Cc1ccc(O)cc1)NC(=O)[C@H](CC(=O)O)NC(=O)[C@H](CO)NC(=O)[C@@H](NC(=O)[C@H](Cc1ccccc1)NC(=O)[C@@H](NC(=O)CNC(=O)[C@H](CCC(=O)O)NC(=O)C(C)(C)NC(=O)[C@@H](N)Cc1ccc(O)cc1)[C@@H](C)O)[C@@H](C)O)[C@@H](C)CC)C(C)C)C(=O)N[C@@H](C)C(=O)N[C@@H](Cc1c[nH]c2ccccc12)C(=O)N[C@@H](CC(C)C)C(=O)N[C@H](C(=O)N[C@@H](CCCCN)C(=O)NCC(=O)NCC(=O)N1CCC[C@H]1C(=O)N[C@@H](CO)C(=O)N[C@@H](CO)C(=O)NCC(=O)N[C@@H](C)C(=O)N1CCC[C@H]1C(=O)N1CCC[C@H]1C(=O)N1CCC[C@H]1C(=O)N[C@@H](CO)C(=O)N[C@@H](CCCCN)C(N)=O)C(C)C [Compound 066] | 2.5 nM | 43.7 | 50 | 
2 | Y[Aib]EGTFTSDYSIYMEKEAVREFIAWLVKGGPSSGAPPPSKKKKKK(Palmitoyl)-NH2 [Compound 078] | 0.145 nM | 754 | 352.6 | 0.019 nM
3 | CCCCCCCCCCCCCCCC(=O)NCCCC[C@H](NC(=O)CNC(=O)[C@H](CCCCN)NC(=O)[C@@H](NC(=O)[C@H](CC(C)C)NC(=O)[C@H](Cc1c[nH]c2ccccc12)NC(=O)[C@H](C)NC(=O)[C@@H](NC(=O)[C@H](Cc1ccccc1)NC(=O)[C@H](CCC(=O)O)NC(=O)[C@H](CCCNC(=N)N)NC(=O)[C@@H](NC(=O)[C@H](C)NC(=O)[C@H](CCC(=O)O)NC(=O)[C@@H]1CCCCNC(=O)CC[C@H](NC(=O)[C@H](CO)NC(=O)[C@H](Cc2ccc(O)cc2)NC(=O)[C@H](CC(=O)O)NC(=O)[C@H](CO)NC(=O)[C@@H](NC(=O)[C@H](Cc2ccccc2)NC(=O)[C@@H](NC(=O)CNC(=O)[C@H](CCC(=O)O)NC(=O)C(C)(C)NC(=O)[C@@H](N)Cc2ccc(O)cc2)[C@@H](C)O)[C@@H](C)O)C(=O)N[C@@H](Cc2ccc(O)cc2)C(=O)N[C@@H](CCSC)C(=O)N[C@@H](CCC(=O)O)C(=O)N1)C(C)C)[C@@H](C)CC)C(C)C)C(N)=O [Compound 084] (H-Y[Aib]EGTFTSDYSEYMEKEAVREFIAWLVKGK(Palmitoyl)-NH2; lactam 12-16) |  | 22.2 | 8.8 | 
